Measurements from patent publication US11331271B2, “Buccal, sublingual and intranasal delivery of fospropofol” (The Johns Hopkins University, priority 2016, dated 2022).

Test system: healthy volunteers
Experiment: Human Study 2: treatment-emergent adverse events (TEAE), safety, Modified OAA/S, DSST, BIS
Assay type: in vivo
Settings: for DSST mean change from baseline: 1 h post-treatment
Experimental: In human study 1, fospropofol disodium was formulated as a sterile aqueous solution at a concentration of 20 mg/mL. Each vial provided contained 20 mL of solution, suitable for intravenous injection. Fospropofol was administered as a single dose of 400 mg orally, directly into the duodenum by gastroscopy or intravenously over 10 min. In human study 2, fospropofol disodium in capsules (200 mg) or matching placebo was administered orally.
A second single ascending dose study was subsequently performed to assess the safety, tolerability, and pharmacokinetics of oral administration of fospropofol as a capsule. This was a double-blind, randomized, crossover, placebo-controlled, single ascending dose study. Ten healthy volunteers were enrolled, 6 males and 4 females between 18 and 45 years of age inclusive with a body mass index between 18 and 28 kg/m^2. Each subject received four ascending oral doses of fospropofol disodium (200, 600, 1,000 and 1,200 mg) and one of placebo. Placebo was administered randomly, in one of the five periods. Subjects stayed in the clinical research unit over 3 days per treatment for five consecutive treatments. Between treatments, there were wash-out periods of at least 6 days, during which interim safety evaluations were made to assess the safety of the subsequent higher doses. Fopropofol disodium in capsules (200 mg) or matching placebo was administered orally. Pharmacokinetic parameters, safety and pharmacodynamic effect were assessed in a manner similar to that in Study 1 described above. In addition, the digit symbol substitution test (DSST) and BIS Index (a commercially available EEG derived measure of anesthesia and sedation, Coviden, Mansfield, Mass., USA) were added as additional pharmacodynamics measures.

[1] = 200 mg oral, listed as Fospropofol
[2] = 600 mg oral, listed as Fospropofol
[3] = 1000 mg oral, listed as Fospropofol
[4] = 1200 mg oral, listed as Fospropofol

CC(C)c1cccc(C(C)C)c1OCOP(=O)(O)O [fospropofol]
6: DSST mean change from baseline (200 mg) | TEAE GENERAL DISORDERS AND ADMINISTRATION SITE CONDITIONS, events (E) (1200 mg oral)
(20%): TEAE paraesthesia, subjects (%) (200 mg oral) | TEAE dizziness, subjects (%) (600 mg oral) | TEAE fatigue, subjects (%) (600 mg oral) | TEAE headache, subjects (%) (600 mg oral) | TEAE feeling hot, subjects (%) (1000 mg oral) | TEAE headache, subjects (%) (1000 mg oral) | TEAE nausea, subjects (%) (1200 mg oral)
(80%): TEAE TOTAL, subjects (%) [1] | TEAE TOTAL, subjects (%) [3] | TEAE somnolence, subjects (%) [4]
(40%): TEAE GENERAL DISORDERS AND ADMINISTRATION SITE CONDITIONS, subjects (%) (600 mg oral) | TEAE GASTROINTESTINAL DISORDERS, subjects (%) (1000 mg oral) | TEAE somnolence, subjects (%) [3]
−13: DSST mean change from baseline (1,200 mg)
5: TEAE GENERAL DISORDERS AND ADMINISTRATION SITE CONDITIONS, events (E) (600 mg oral)
90%: TEAE TOTAL, subjects (%) (600 mg oral) | TEAE TOTAL, subjects (%) (1200 mg oral)
−11: DSST mean change from baseline (1,000 mg)
14: TEAE NERVOUS SYSTEM DISORDERS, events (E) (1000 mg oral)
≥ 80%: subjects with Modified OAA/S score of 5 (at most time points, each treatment group)
60%: paresthesia, rate of occurrence (Study 2, all treatments)
(60%): TEAE paraesthesia, subjects (%) (1000 mg oral)
10: TEAE NERVOUS SYSTEM DISORDERS, events (E) (200 mg oral)
(70%): TEAE NERVOUS SYSTEM DISORDERS, subjects (%) (200 mg oral) | TEAE NERVOUS SYSTEM DISORDERS, subjects (%) (600 mg oral) | TEAE NERVOUS SYSTEM DISORDERS, subjects (%) (1000 mg oral)
18: TEAE TOTAL, events (E) (200 mg oral)
80%: TEAE TOTAL, subjects (%) (200 mg oral) | TEAE TOTAL, subjects (%) (1000 mg oral) | TEAE somnolence, subjects (%) (1200 mg oral)
71-98%: BIS score range (600 mg)
28: TEAE TOTAL, events (E) (1000 mg oral)
26: TEAE TOTAL, events (E) (1200 mg oral)
No subject experienced a SAE: serious adverse events (200-1,200 mg oral)
16: TEAE NERVOUS SYSTEM DISORDERS, events (E) (600 mg oral)
2: TEAE GASTROINTESTINAL DISORDERS, events (E) (200 mg oral)
13: TEAE NERVOUS SYSTEM DISORDERS, events (E) (1200 mg oral)
(90%): TEAE TOTAL, subjects (%) [2] | TEAE NERVOUS SYSTEM DISORDERS, subjects (%) (1200 mg oral) | TEAE TOTAL, subjects (%) [4]
80-98%: BIS score range (200 mg)
(30%): TEAE paraesthesia oral, subjects (%) (200 mg oral) | TEAE GASTROINTESTINAL DISORDERS, subjects (%) (600 mg oral) | TEAE feeling hot, subjects (%) (600 mg oral) | TEAE GENERAL DISORDERS AND ADMINISTRATION SITE CONDITIONS, subjects (%) (1000 mg oral) | TEAE VASCULAR DISORDERS, subjects (%) (1000 mg oral) | TEAE nausea, subjects (%) (1000 mg oral) | TEAE phlebitis superficial, subjects (%) (1000 mg oral) | TEAE GASTROINTESTINAL DISORDERS, subjects (%) (1200 mg oral) | TEAE GENERAL DISORDERS AND ADMINISTRATION SITE CONDITIONS, subjects (%) (1200 mg oral) | TEAE feeling hot, subjects (%) (1200 mg oral) | TEAE paraesthesia, subjects (%) (1200 mg oral)
40%: TEAE somnolence, subjects (%) (200 mg oral) | TEAE somnolence, subjects (%) (1000 mg oral) | subjects with Modified OAA/S score of 4 (1,200 mg, 1.5-h time point)
(14%): TEAE INFECTIONS AND INFESTATIONS, subjects (%) (1200 mg oral)
> 90%: mean BIS scores (all time points, all treatments)
−5: DSST mean change from baseline (600 mg)
1: subjects with somnolence considered severe (1000 mg oral) | subjects with somnolence considered severe (1200 mg oral)
no changes: laboratory values, vital signs, ECGs, physical examinations (200-1,200 mg oral)
(10%): TEAE EYE DISORDERS, subjects (%) (200 mg oral) | TEAE GASTROINTESTINAL DISORDERS, subjects (%) (200 mg oral) | TEAE GENERAL DISORDERS AND ADMINISTRATION SITE CONDITIONS, subjects (%) (200 mg oral) | TEAE INFECTIONS AND INFESTATIONS, subjects (%) (200 mg oral) | TEAE MUSCULOSKELETAL AND CONNECTIVE DISORDERS, subjects (%) (200 mg oral) | TEAE RESPIRATORY THORACIC AND MEDIASTINAL DISORDERS, subjects (%) (200 mg oral) | TEAE VASCULAR DISORDERS, subjects (%) (200 mg oral) | TEAE abdominal pain, subjects (%) (200 mg oral) | TEAE eye irritation, subjects (%) (200 mg oral) | TEAE feeling hot, subjects (%) (200 mg oral) | TEAE nausea, subjects (%) (200 mg oral) | TEAE pharyngolaryngeal pain, subjects (%) (200 mg oral) | TEAE rhinitis, subjects (%) (200 mg oral) | TEAE sensation of heaviness, subjects (%) (200 mg oral) | TEAE vein pain, subjects (%) (200 mg oral) | TEAE somnolence, subjects (%) [1] | TEAE PSYCHIATRIC DISORDERS, subjects (%) (600 mg oral) | TEAE REPRODUCTIVE SYSTEM AND BREAST DISORDERS, subjects (%) (600 mg oral) | TEAE RESPIRATORY THORACIC AND MEDIASTINAL DISORDERS, subjects (%) (600 mg oral) | TEAE VASCULAR DISORDERS, subjects (%) (600 mg oral) | TEAE abdominal pain, subjects (%) (600 mg oral) | TEAE bowel sounds abnormal, subjects (%) (600 mg oral) | TEAE dysgeusia, subjects (%) (600 mg oral) | TEAE euphoric mood, subjects (%) (600 mg oral) | TEAE nausea, subjects (%) (600 mg oral) | TEAE perineal pain, subjects (%) (600 mg oral) | TEAE pharyngolaryngeal pain, subjects (%) (600 mg oral) | TEAE phlebitis superficial, subjects (%) (600 mg oral) | TEAE proctalgia, subjects (%) (600 mg oral) | TEAE CARDIAC DISORDERS, subjects (%) (1000 mg oral) | TEAE REPRODUCTIVE SYSTEM AND BREAST DISORDERS, subjects (%) (1000 mg oral) | TEAE RESPIRATORY THORACIC AND MEDIASTINAL DISORDERS, subjects (%) (1000 mg oral) | TEAE dysphagia, subjects (%) (1000 mg oral) | TEAE fatigue, subjects (%) (1000 mg oral) | TEAE palpitations, subjects (%) (1000 mg oral) | TEAE paraesthesia oral, subjects (%) (1000 mg oral) | TEAE perineal pain, subjects (%) (1000 mg oral) | TEAE throat irritation, subjects (%) (1000 mg oral) | TEAE PSYCHIATRIC DISORDERS, subjects (%) (1200 mg oral) | TEAE REPRODUCTIVE SYSTEM AND BREAST DISORDERS, subjects (%) (1200 mg oral) | TEAE RESPIRATORY THORACIC AND MEDIASTINAL DISORDERS, subjects (%) (1200 mg oral) | TEAE VASCULAR DISORDERS, subjects (%) (1200 mg oral) | TEAE defecation urgency, subjects (%) (1200 mg oral) | TEAE dyspnoea, subjects (%) (1200 mg oral) | TEAE euphoric mood, subjects (%) (1200 mg oral) | TEAE fatigue, subjects (%) (1200 mg oral) | TEAE headache, subjects (%) (1200 mg oral) | TEAE paraesthesia oral, subjects (%) (1200 mg oral) | TEAE perineal pain, subjects (%) (1200 mg oral) | TEAE vein pain, subjects (%) (1200 mg oral)
7: TEAE paraesthesia, events (E) (1000 mg oral)
70-98%: BIS score range (1,000 mg) | BIS score range (1,200 mg)
3: TEAE paraesthesia, events (E) (200 mg oral) | TEAE headache, events (E) (600 mg oral) | lowest Modified OAA/S score (1,000 mg, Subject 003, 1 and 1.5 h after treatment)
29: TEAE TOTAL, events (E) (600 mg oral)
50%: TEAE somnolence, subjects (%) (600 mg oral) | nausea, rate of occurrence (Study 2, all treatments) | phlebitis superficial, rate of occurrence (Study 2, all treatments)
4: TEAE GASTROINTESTINAL DISORDERS, events (E) (600 mg oral) | TEAE VASCULAR DISORDERS, events (E) (1000 mg oral) | TEAE phlebitis superficial, events (E) (1000 mg oral) | TEAE feeling hot, events (E) (1200 mg oral)
mild or moderate: severity of most TEAEs (Study 2)
(50%): TEAE paraesthesia, subjects (%) (600 mg oral) | TEAE somnolence, subjects (%) [2]
